Patent USRE47689E1, “Compounds for treating spinal muscular atrophy” (PTC Therapeutics, Inc., priority 2011, dated 2019)

Experiments:
[1] = system: SMN2 minigene (full length SMN2 minigene mRNA containing SMN2 exon 7); assay: SMN2 minigene mRNA splicing RT-qPCR assay in cultured cells; assay type: cell-based, human; details: Homo sapiens, HEK293-H; HEK293H cells stably transfected with SMN2-A minigene; 24 hours; 7-point concentration curve; 1.5-fold relative to vehicle-treated cells; read-out: EC1.5x for production of full length SMN2 mRNA
Method in brief: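 Read-out: full-length (exon 7-included) SMN2 minigene mRNA by multiplex RT-qPCR with GAPDH, efficiency-corrected (1+E)^−Ct, GAPDH-normalized and divided by vehicle. Stably transfected HEK293H cells, 24 h compound exposure, duplicates per concentration. Value is EC1.5x, reported as star ranges.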

[2] = system: Smn protein; assay: Smn protein assay in cultured cells (SMN HTRF); assay type: cell-based, human; details: 48 hours; for EC1.5x (concentration giving 1.5-fold Smn protein increase): SMA Type 1 patient fibroblast cells (GM03813), 7-point concentration curve, SMN HTRF, concentration producing 1.5 times Smn protein vs DMSO vehicle control, read-out: EC1.5x for Smn protein expression; for maximum fold (Fold) increase of Smn protein: SMA patient fibroblast cells, 7-point concentration data, fold increase relative to vehicle control (SMN HTRF)
Method in brief: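 Lysates in RIPA with protease inhibitors are incubated overnight at room temperature with HTRF anti-SMN antibodies. EC1.5x is derived from fold increase in ΔF over vehicle.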

Compound | EC (1.5-fold) [1] | EC1.5x (concentration giving 1.5-fold Smn protein increase) [2] | maximum fold (Fold) increase of Smn protein [2] | melting point
COc1ccc(-c2cc3ccc(N4CCN[C@@H](C)C4)cc3oc2=O)cc1OC [Compound 383, 3-(3,4-dimethoxyphenyl)-7-[(3S)-3-methylpiperazin-1-yl]-2H-chromen-2-one] | 0.1 to 0.3 µM | 1000 to 3000 nM | **** (fold increase between >1.5 and ≤1.65) | 140 to 143 °C
C[C@H]1CN(c2ccc3cc(-c4cn5cc(F)cc(F)c5n4)c(=O)oc3c2)CCN1 [Compound 524, 3-(6,8-difluoroimidazo[1,2-a]pyridin-2-yl)-7-[(3S)-3-methylpiperazin-1-yl]-2H-chromen-2-one] | 0.3 to 1 µM |  | * (maximum fold increase of ≤1.2) | 218 to 224 °C
COc1ccc(-c2cc3ccc(N4C[C@@H](C)N[C@@H](C)C4)cc3oc2=O)cc1C [Compound 543, 7-[(3R,5S)-3,5-dimethylpiperazin-1-yl]-3-(4-methoxy-3-methylphenyl)-2H-chromen-2-one] | 1 to 3 µM |  | * (maximum fold increase of ≤1.2) | 111 to 113 °C
CN1CCN(c2cc(F)c3cc(-c4nc5ccccc5[nH]4)c(=O)oc3c2)CC1 [Compound 370, 3-(1H-benzimidazol-2-yl)-5-fluoro-7-(4-methylpiperazin-1-yl)-2H-chromen-2-one] | 0.3 to 1 µM |  | * (maximum fold increase of ≤1.2) | 281 to 284 °C
O=c1oc2cc(CN3CCCCC3)ccc2cc1-c1nc2ccccc2s1 [Compound 59, 3-(1,3-benzothiazol-2-yl)-7-(piperidin-1-ylmethyl)-2H-chromen-2-one] | 1 to 3 µM |  | ** (fold increase between >1.2 and ≤1.35) | 201 to 205 °C
Cc1cn2cc(-c3cc4ccc(CCCCN5CCNCC5)cc4oc3=O)nc2c(C)n1 [Compound 905, 3-(6,8-dimethylimidazo[1,2-a]pyrazin-2-yl)-7-[4-(piperazin-1-yl)butyl]-2H-chromen-2-one] | 1 to 3 µM | 1000 to 3000 nM | **** (fold increase between >1.5 and ≤1.65) | 187 to 191 °C
O=c1oc2cc(N3CCNCC3)ccc2cc1-c1nc2cncnc2[nH]1 [Compound 314, 7-(piperazin-1-yl)-3-(9H-purin-8-yl)-2H-chromen-2-one] | 1 to 3 µM |  | * (maximum fold increase of ≤1.2) | 291 to 297 °C
CCN1CCN(c2ccc3cc(-c4cc5c(C)nc(C)cn5c4)c(=O)oc3c2)C[C@@H]1C [Compound 694, 3-(1,3-dimethylpyrrolo[1,2-a]pyrazin-7-yl)-7-[(3S)-4-ethyl-3-methylpiperazin-1-yl]-2H-chromen-2-one] | < 0.1 µM | < 300 nM | **** (fold increase between >1.5 and ≤1.65) | 173 to 175 °C
O=c1oc2cc(N3CCNCC3)ccc2cc1-c1cn2cc(Cl)sc2n1 [Compound 494, 3-(2-chloroimidazo[2,1-b][1,3]thiazol-6-yl)-7-(piperazin-1-yl)-2H-chromen-2-one] | 0.1 to 0.3 µM |  | * (maximum fold increase of ≤1.2) | 240 to 242 °C
Cc1cn2cc(-c3cc4ccc(N5C[C@@H](C)N[C@@H](C)C5)cc4oc3=O)cc2c(C)n1 [Compound 645, 7-[(3R,5S)-3,5-dimethylpiperazin-1-yl]-3-(1,3-dimethylpyrrolo[1,2-a]pyrazin-7-yl)-2H-chromen-2-one] | < 0.1 µM | < 300 nM | ***** (fold increase >1.65) | 170 to 173 °C
Cc1cn2cc(-c3cc4ccc(N5CCN[C@@H](C)C5)cc4oc3=O)cc2c(C)n1 [Compound 680, 3-(1,3-dimethylpyrrolo[1,2-a]pyrazin-7-yl)-7-[(3S)-3-methylpiperazin-1-yl]-2H-chromen-2-one] | < 0.1 µM | < 300 nM | **** (fold increase between >1.5 and ≤1.65) | 162 to 165 °C
Cc1ccn2cc(-c3cc4ccc(NCCCN(C)C)cc4oc3=O)nc2c1 [Compound 475, 7-{[3-(dimethylamino)propyl]amino}-3-(7-methylimidazo[1,2-a]pyridin-2-yl)-2H-chromen-2-one] | 3 to 30 µM |  | * (maximum fold increase of ≤1.2) | 165 to 170 °C
Cc1ccc2nc(-c3cc4ccc(N(C)Cc5cccnc5)cc4oc3=O)cn2c1 [Compound 221, 3-(6-methylimidazo[1,2-a]pyridin-2-yl)-7-[methyl(pyridin-3-ylmethyl)amino]-2H-chromen-2-one] | 1 to 3 µM |  | * (maximum fold increase of ≤1.2) | 220 to 223 °C
Cc1ccc2oc(-c3cc4ccc(N5CCN6CCC[C@H]6C5)cc4oc3=O)cc2n1 [Compound 722, 7-[(8aS)-hexahydropyrrolo[1,2-a]pyrazin-2(1H)-yl]-3-(5-methylfuro[3,2-b]pyridin-2-yl)-2H-chromen-2-one] | 1 to 3 µM |  | * (maximum fold increase of ≤1.2) | 228 to 230 °C
Cc1cn2cc(-c3cc4ccc(CCCN5CCN(C)CC5)cc4oc3=O)nc2c(C)n1 [Compound 860, 3-(6,8-dimethylimidazo[1,2-a]pyrazin-2-yl)-7-[3-(4-methylpiperazin-1-yl)propyl]-2H-chromen-2-one] | 0.3 to 1 µM | 1000 to 3000 nM | **** (fold increase between >1.5 and ≤1.65) | 219 to 223 °C
C[C@@H]1CN(c2ccc3cc(-c4nc(C(F)(F)F)cs4)c(=O)oc3c2)C[C@H](C)N1 [Compound 236, 7-[(3R,5S)-3,5-dimethylpiperazin-1-yl]-3-[4-(trifluoromethyl)-1,3-thiazol-2-yl]-2H-chromen-2-one] | 1 to 3 µM |  | * (maximum fold increase of ≤1.2) | 215 to 219 °C
COc1ccn2cc(-c3cc4ccc(N5CCCN(C)CC5)cc4oc3=O)nc2c1 [Compound 436, 3-(7-methoxyimidazo[1,2-a]pyridin-2-yl)-7-(4-methyl-1,4-diazepan-1-yl)-2H-chromen-2-one] | 3 to 30 µM |  | * (maximum fold increase of ≤1.2) | 198 to 207 °C
Cc1cn2cc(-c3cc4ccc(N5CCC(NC6CCC6)CC5)cc4oc3=O)nc2c(C)n1 [Compound 924, 7-[4-(cyclobutylamino)piperidin-1-yl]-3-(6,8-dimethylimidazo[1,2-a]pyrazin-2-yl)-2H-chromen-2-one] | < 0.1 µM | < 300 nM | **** (fold increase between >1.5 and ≤1.65) | 222 to 225 °C
CC(=O)O.CC(=O)O.CC[C@H]1CN(c2ccc3cc(-c4cn5cc(C)nc(C)c5n4)c(=O)oc3c2)CCN1CC [Compound 779, 7-[(3S)-3,4-diethylpiperazin-1-yl]-3-(6,8dimethylimidazo[1,2-a]pyrazin-2-yl)-2H-chromen-2-one acetate (1:2)] | < 0.1 µM | < 300 nM | ***** (fold increase >1.65) | 170 to 174 °C
Cc1ccc(Nc2cc3ccc(N4CCNCC4)cc3oc2=O)nc1 [Compound 63, 3-[(5-methylpyridin-2-yl)amino]-7-(piperazin-1-yl)-2H-chromen-2-one] | 1 to 3 µM |  | ** (fold increase between >1.2 and ≤1.35) | 225 to 228 °C
Cc1cn2cc(-c3cc4ccc(OCCN5CCCCC5)cc4oc3=O)nc2c(C)n1 [Compound 953, 3-(6,8-dimethylimidazo[1,2-a]pyrazin-2-yl)-7-[2-(piperidin-1-yl)ethoxy]-2H-chromen-2-one] | < 0.1 µM | < 300 nM | **** (fold increase between >1.5 and ≤1.65) | 178 to 190 °C
Cc1cn2cc(-c3cc4ccc(N5CCCNCC5)cc4oc3=O)nc2c(C)n1 [Compound 518, 7-(1,4-diazepan-1-yl)-3-(6,8-dimethylimidazo[1,2-a]pyrazin-2-yl)-2H-chromen-2-one] | < 0.1 µM | < 300 nM | ***** (fold increase >1.65) | 188 to 190 °C
Cc1cn2cc(-c3cc4ccc(C5CCN(C6COC6)CC5)cc4oc3=O)nc2c(C)n1 [Compound 855, 3-(6,8-dimethylimidazo[1,2-a]pyrazin-2-yl)-7-[1-(oxetan-3-yl)piperidin-4-yl]-2H-chromen-2-one] | < 0.1 µM | < 300 nM | ***** (fold increase >1.65) | 217 to 223 °C
CN1CCCN(c2cc(F)c3cc(-c4nc5c(F)cccc5o4)c(=O)oc3c2)CC1 [Compound 369, 5-fluoro-3-(4-fluoro-1,3-benzoxazol-2-yl)-7-(4-methyl-1,4-diazepan-1-yl)-2H-chromen-2-one] | 0.1 to 0.3 µM |  | ** (fold increase between >1.2 and ≤1.35) | 224 to 228 °C
